From PubChem BioAssay (NCI)
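Values below derive from 48-hour exposures of cells grown in 96-well plates, with endpoints linearly interpolated between the two concentrations bracketing the appropriate inhibition level. GI50 is the concentration that inhibits growth by half. Definition used: TGI = concentration required for complete inhibition of growth.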

Assays:
Experiment in all cases: growth of human tumour cells (NCI), 48 h
[1] = system: 786-0 renal
[2] = system: CCRF-CEM leukemia
[3] = system: HCT-116 colon
[4] = system: MDA-MB-231 breast
[5] = system: MOLT-4 leukemia
[6] = system: OVCAR-8 ovarian
[7] = system: SK-OV-3 ovarian
[8] = system: SNB-19 CNS
[9] = system: U251 CNS
[10] = system: UO-31 renal

Question: How did the GI50 [1] turn out when `CCOC(=O)c1c2c(n(CC(C)C)c1C)-c1nc[nH]c1C(=O)C2=O` was run?
Answer: 19.2 µM

Question: What about the TGI [1] of the same molecule?
Answer: 33.3 µM

Question: What about the GI50 [2] of the same molecule?
Answer: 4.78 µM

Question: And the TGI [2]?
Answer: 16.7 µM

Question: What about the GI50 [3] of the same molecule?
Answer: 5.92 µM

Question: What about the TGI [3] of the same molecule?
Answer: 18.8 µM

Question: What about the GI50 [4] of the same molecule?
Answer: 6.85 µM

Question: And the TGI [4]?
Answer: 20.1 µM

Question: What about the GI50 [5] of the same molecule?
Answer: 2.57 µM

Question: And the TGI [5]?
Answer: 9.45 µM

Question: And the GI50 [6]?
Answer: 15.8 µM

Question: And the TGI [6]?
Answer: 29.3 µM

Question: And the GI50 [7]?
Answer: 22.4 µM

Question: What about the TGI [7] of the same molecule?
Answer: 37.3 µM

Question: What about the GI50 [8] of the same molecule?
Answer: 16.4 µM

Question: And the TGI [8]?
Answer: 30.1 µM

Question: What about the GI50 [9] of the same molecule?
Answer: 14.2 µM

Question: And the TGI [9]?
Answer: 27.2 µM

Question: What about the GI50 [10] of the same molecule?
Answer: 16.3 µM

Question: And the TGI [10]?
Answer: 29.9 µM

Question: What does the source list for `CC1Oc2cc3c(-c4c(O)cc(O)c5c(O)c6c(cc45)OC(C)C(C)C6=O)c(O)cc(O)c3c(O)c2C(=O)C1C` (stereo not given)?
Answer: TGI [1]: 1.21 µM; TGI [2]: 0.148 µM; TGI [3]: 0.289 µM; TGI [4]: 0.378 µM; TGI [5]: 0.731 µM; TGI [6]: 1.4 µM; TGI [7]: 1.56 µM; TGI [8]: 1.16 µM; TGI [9]: 0.404 µM; TGI [10]: 1.54 µM

Question: How did the GI50 [1] turn out when `NC(=O)[C@H]1CCN(c2ncnc(N)c2F)C[C@@H]1N1CCC[C@@H](Nc2cc(Cl)cc(C(F)(F)F)c2)C1=O` was run?
Answer: 21.8 µM

Question: What about the TGI [1] of the same molecule?
Answer: > 100 µM

Question: And the GI50 [2]?
Answer: 24.5 µM

Question: What about the TGI [2] of the same molecule?
Answer: > 100 µM

Question: What about the GI50 [3] of the same molecule?
Answer: 15.5 µM

Question: What about the TGI [3] of the same molecule?
Answer: 43 µM

Question: And the GI50 [4]?
Answer: 14.3 µM

Question: And the TGI [4]?
Answer: 32.6 µM

Question: And the GI50 [5]?
Answer: 4.93 µM

Question: What about the TGI [5] of the same molecule?
Answer: 65.9 µM

Question: What about the GI50 [6] of the same molecule?
Answer: 25.6 µM

Question: And the TGI [6]?
Answer: > 100 µM

Question: What about the GI50 [7] of the same molecule?
Answer: 6.33 µM

Question: And the TGI [7]?
Answer: 56.3 µM

Question: What about the GI50 [8] of the same molecule?
Answer: 25.8 µM

Question: What about the TGI [8] of the same molecule?
Answer: > 100 µM

Question: What about the GI50 [9] of the same molecule?
Answer: 26.3 µM

Question: And the TGI [9]?
Answer: > 100 µM

Question: And the GI50 [10]?
Answer: 9.16 µM

Question: What about the TGI [10] of the same molecule?
Answer: > 100 µM

Question: What does the source list for `COc1cc(Cn2cc3c(c2)-c2oncc2CC3)cc(OC)c1OC`?
Answer: GI50 [1]: 0.109 µM; TGI [1]: > 64.6 µM; GI50 [2]: 0.0193 µM; TGI [2]: 16.7 µM; GI50 [3]: 0.0379 µM; TGI [3]: > 100 µM; GI50 [4]: 0.0601 µM; TGI [4]: > 100 µM; GI50 [5]: 0.0338 µM; TGI [5]: 13.1 µM; GI50 [6]: 0.0548 µM; TGI [6]: > 100 µM; GI50 [7]: 0.0402 µM; TGI [7]: > 57.5 µM; GI50 [8]: 0.0437 µM; TGI [8]: > 100 µM; GI50 [9]: 0.0387 µM; TGI [9]: > 100 µM; GI50 [10]: 0.0594 µM; TGI [10]: 15.1 µM

Question: `CCN1C(=O)N(CC)C2C1NN=c1s/c(=C3\C(=O)N(C(C)C)c4ccccc43)c(=O)n12` (stereo not given) was tested. Which GI50 [1] did it give?
Answer: 0.852 µM

Question: What about the TGI [1] of the same molecule?
Answer: 17.7 µM

Question: And the GI50 [2]?
Answer: 0.377 µM

Question: And the TGI [2]?
Answer: > 100 µM

Question: And the GI50 [3]?
Answer: 0.377 µM

Question: What about the TGI [3] of the same molecule?
Answer: > 100 µM

Question: What about the GI50 [4] of the same molecule?
Answer: 0.434 µM

Question: And the TGI [4]?
Answer: 15.4 µM

Question: And the GI50 [5]?
Answer: 0.379 µM

Question: What about the TGI [5] of the same molecule?
Answer: > 100 µM

Question: What about the GI50 [6] of the same molecule?
Answer: 0.62 µM

Question: And the TGI [6]?
Answer: > 53.4 µM

Question: What about the GI50 [7] of the same molecule?
Answer: 0.403 µM

Question: What about the TGI [7] of the same molecule?
Answer: 12.1 µM

Question: What about the GI50 [8] of the same molecule?
Answer: 0.44 µM

Question: And the TGI [8]?
Answer: > 100 µM

Question: What about the GI50 [9] of the same molecule?
Answer: 0.378 µM

Question: And the TGI [9]?
Answer: > 57.7 µM

Question: What about the GI50 [10] of the same molecule?
Answer: 0.636 µM

Question: What about the TGI [10] of the same molecule?
Answer: > 100 µM

Question: Which GI50 [1] does the source give for `Nc1nc(/C=C\c2ccc([N+](=O)[O-])o2)nc(N2CCN(c3ccccc3)CC2)n1` here?
Answer: 5.5 µM

Question: What about the TGI [1] of the same molecule?
Answer: 25.8 µM

Question: And the GI50 [2]?
Answer: 8.01 µM

Question: And the TGI [2]?
Answer: 82.3 µM

Question: And the GI50 [3]?
Answer: 2.61 µM

Question: And the TGI [3]?
Answer: 12.2 µM

Question: And the GI50 [4]?
Answer: 3.51 µM

Question: And the TGI [4]?
Answer: 13.3 µM

Question: What about the GI50 [5] of the same molecule?
Answer: 8.39 µM

Question: What about the TGI [5] of the same molecule?
Answer: > 100 µM

Question: What about the GI50 [6] of the same molecule?
Answer: 25.8 µM

Question: And the TGI [6]?
Answer: > 100 µM

Question: And the GI50 [7]?
Answer: 17.1 µM

Question: And the TGI [7]?
Answer: 44.7 µM

Question: What about the GI50 [8] of the same molecule?
Answer: 20 µM

Question: And the TGI [8]?
Answer: 83.8 µM

Question: And the GI50 [9]?
Answer: 6.06 µM

Question: What about the TGI [9] of the same molecule?
Answer: 39.7 µM

Question: What about the GI50 [10] of the same molecule?
Answer: 13.6 µM

Question: What about the TGI [10] of the same molecule?
Answer: 39.8 µM

Question: With `CCN(CC)CCOc1ccc(C(=C(C)c2ccc(Cl)cc2)c2ccc(OCCN(CC)CC)cc2)cc1` as the molecule, how does the GI50 [1] read?
Answer: 0.597 µM

Question: What about the TGI [1] of the same molecule?
Answer: 1.12 µM

Question: What about the GI50 [2] of the same molecule?
Answer: 0.625 µM

Question: What about the TGI [2] of the same molecule?
Answer: 1.71 µM

Question: And the GI50 [3]?
Answer: 0.591 µM

Question: And the TGI [3]?
Answer: 1.16 µM

Question: And the GI50 [4]?
Answer: 0.581 µM

Question: And the TGI [4]?
Answer: 1.12 µM

Question: And the GI50 [5]?
Answer: 0.674 µM

Question: And the TGI [5]?
Answer: 1.5 µM

Question: What about the GI50 [6] of the same molecule?
Answer: 0.731 µM

Question: What about the TGI [6] of the same molecule?
Answer: 1.77 µM

Question: And the GI50 [7]?
Answer: 1.22 µM

Question: And the TGI [7]?
Answer: 4.11 µM

Question: What about the GI50 [8] of the same molecule?
Answer: 0.699 µM

Question: What about the TGI [8] of the same molecule?
Answer: 1.56 µM

Question: And the GI50 [9]?
Answer: 0.582 µM

Question: And the TGI [9]?
Answer: 1.15 µM

Question: And the GI50 [10]?
Answer: 0.503 µM

Question: And the TGI [10]?
Answer: 0.969 µM

Question: Which GI50 [1] does the source give for `N#CC(C#N)=Cc1ccc(-c2ccc(-c3nc4ccccc4s3)cc2)o1` here?
Answer: 3.15 µM

Question: What about the TGI [1] of the same molecule?
Answer: 16 µM

Question: And the GI50 [2]?
Answer: 4.15 µM

Question: What about the TGI [2] of the same molecule?
Answer: 70.6 µM

Question: And the GI50 [3]?
Answer: 5.11 µM

Question: What about the TGI [3] of the same molecule?
Answer: 24.9 µM

Question: What about the GI50 [4] of the same molecule?
Answer: 19.8 µM

Question: And the TGI [4]?
Answer: 37.8 µM

Question: What about the GI50 [5] of the same molecule?
Answer: 14 µM

Question: And the TGI [5]?
Answer: > 100 µM

Question: What about the GI50 [6] of the same molecule?
Answer: 12.7 µM

Question: What about the TGI [6] of the same molecule?
Answer: 33.1 µM

Question: And the GI50 [7]?
Answer: 10 µM

Question: What about the TGI [7] of the same molecule?
Answer: 35.4 µM

Question: What about the GI50 [8] of the same molecule?
Answer: 30 µM

Question: And the TGI [8]?
Answer: 84.3 µM

Question: What about the GI50 [9] of the same molecule?
Answer: 12 µM

Question: What about the TGI [9] of the same molecule?
Answer: 24.8 µM

Question: What about the GI50 [10] of the same molecule?
Answer: 20.3 µM

Question: And the TGI [10]?
Answer: > 100 µM

Question: What does the source list for `CC(=O)OC1c2ccccc2CC2(OC(C)=O)c3ccccc3C12` (stereo not given)?
Answer: TGI [1]: > 100 µM; TGI [2]: > 100 µM; TGI [3]: > 100 µM; TGI [4]: > 100 µM; TGI [5]: > 100 µM; TGI [6]: > 100 µM; TGI [7]: > 100 µM; TGI [8]: > 100 µM; TGI [9]: > 100 µM; TGI [10]: > 100 µM

Question: What does the source list for `N#Cc1ncc(/N=C/c2ccc(N(CCCl)CCCl)cc2)s1`?
Answer: GI50 [1]: 4.52 µM; TGI [1]: 20.3 µM; GI50 [2]: 16 µM; TGI [2]: > 100 µM; GI50 [3]: 30.2 µM; TGI [3]: > 100 µM; GI50 [4]: 50.2 µM; TGI [4]: > 100 µM; GI50 [5]: 10.6 µM; TGI [5]: > 100 µM; GI50 [6]: 7.58 µM; TGI [6]: > 100 µM; GI50 [7]: 27.7 µM; TGI [7]: > 100 µM; GI50 [8]: 77.7 µM; TGI [8]: > 100 µM; GI50 [9]: 18.6 µM; TGI [9]: > 100 µM; GI50 [10]: 6.26 µM; TGI [10]: 30 µM
